Key:
Format in all cases: in vivo
[1] = system: Alopecurus myosuroides; assay: Post-emergence herbicidal action, ALOMY; design: key: % herbicidal action vs untreated; 100 = plants died, 0 = like control
In short: (§1)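 One-leaf-stage weeds, raised from seed in greenhouse sandy loam, received a single foliar spray of compound as wettable powder or emulsion concentrate with 0.2% wetting agent added. Growth continued under optimal conditions for about 3 weeks before percent damage was scored by eye against controls.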

[2] = system: Pharbitis purpurea; assay: Pre-emergence herbicidal action, PHBPU; conditions: dosage 320 g/ha; for herbicidal activity PHBPU: scored visually after 3 weeks vs untreated controls (100% = plants have died)
In short: (§2)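 Seeds were covered with sandy loam soil, then received a pre-emergence surface spray of the WP- or EC-formulated compound. After 3 weeks under good greenhouse growth conditions, damage was scored visually in percent.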

[3] = system: Abutilon theophrasti; assay: Pre-emergence herbicidal action, ABUTH; design: key to Herbicidal action against ABUTH: % activity: 100 = plants have died, 0 = like control plants; conditions: for herbicidal activity ABUTH: scored visually after 3 weeks vs untreated controls (100% = plants have died)
In short: as §2

[4] = system: Echinochloa crus-galli; assay: Post-emergence herbicidal action, ECHCG; design: key: % herbicidal action vs untreated; 100 = plants died, 0 = like control; conditions: for Herbicidal action against ECHCG: comparative experiment, 5 g of a.i./ha
In short: as §1

[5] = system: Viola tricolor; assay: Post-emergence herbicidal action, VIOTR; design: key: % herbicidal action vs untreated; 100 = plants died, 0 = like control
In short: as §1

[6] = system: Veronica persica; assay: Post-emergence herbicidal action, VERPE; design: key: % herbicidal action vs untreated; 100 = plants died, 0 = like control; conditions: for Herbicidal action against VERPE: comparative experiment, 5 g of a.i./ha
In short: as §1

[7] = system: Abutilon theophrasti; assay: Post-emergence herbicidal action, ABUTH; design: key: % herbicidal action vs untreated; 100 = plants died, 0 = like control; conditions: for Herbicidal action against ABUTH: comparative experiment, 5 g of a.i./ha
In short: as §1

| Structure (SMILES) | herbicidal action ALOMY ([1]; Dosage 80 g/ha) | herbicidal activity PHBPU [2] | herbicidal activity ABUTH ([3]; dosage 320 g/ha) | herbicidal action ECHCG ([4]; Dosage 80 g/ha) | herbicidal action VIOTR ([5]; Dosage 80 g/ha) | herbicidal action VERPE ([6]; Dosage 80 g/ha) | herbicidal action ABUTH ([7]; Dosage 80 g/ha) | herbicidal action PHBPU [2] | herbicidal action ABUTH ([3]; dosage 320 g/ha) | herbicidal action ALOMY ([1]; post-emergence, dosage 80 g/ha) | herbicidal action ECHCG ([4]; post-emergence, dosage 80 g/ha) | herbicidal action VIOTR ([5]; post-emergence, dosage 80 g/ha) | herbicidal action VERPE ([6]; post-emergence, dosage 80 g/ha) | herbicidal action ABUTH ([7]; post-emergence, dosage 80 g/ha) | Herbicidal action against ABUTH ([3]; comparative experiment, 20 g of a.i./ha) | Herbicidal action against ECHCG ([4]; post-emergence) | Herbicidal action against VERPE ([6]; post-emergence) | Herbicidal action against ABUTH ([7]; post-emergence) | Herbicidal action against VIOTR ([5]; comparative experiment, post-emergence, 5 g of a.i./ha) |
| --- | --- | --- | --- | --- | --- | --- | --- | --- | --- | --- | --- | --- | --- | --- | --- | --- | --- | --- | --- |
| Cn1nnnc1NC(=O)c1ccc(C(F)(F)F)c(CSCC(F)(F)F)c1Cl [Example 1-311] | 100 | 100% | 100% | 100 | 100 | 100 | 100 |  |  |  |  |  |  |  |  |  |  |  |  |
| CCS(=O)(=O)Cc1c(C(F)(F)F)ccc(C(=O)Nc2nnnn2C)c1C [Example 1-88] | 80 |  |  | 90 | 100 | 100 | 80 | 90% | 100% |  |  |  |  |  |  |  |  |  |  |
| CCSCc1c(C(F)F)ccc(C(=O)Nc2nnnn2C)c1Cl [Example 1-323] |  | 100% | 100% |  |  |  |  |  |  | 90% | 100% | 100% | 100% | 100% |  |  |  |  |  |
| CCn1nnnc1NC(=O)c1ccc(C(F)F)c(CS(C)(=O)=O)c1Cl [Example 2-322] |  | 100% | 100% |  |  |  |  |  |  | 80% | 100% | 100% | 90% | 100% |  |  |  |  |  |
| CCn1nnnc1NC(=O)c1ccc(I)c(C[S+](C)[O-])c1Cl (centres unmarked) [Example 2-363] | 90 | 80% | 100% | 100 | 100 | 100 | 100 |  |  |  |  |  |  |  |  |  |  |  |  |
| Cn1nnnc1NC(=O)c1ccc(C(F)(F)F)c(CSC2CC2)c1Cl [Example 1-302] |  | 100% | 100% |  |  |  |  |  |  | 100% | 100% | 100% | 90% | 100% |  |  |  |  |  |
| CCn1nnnc1NC(=O)c1ccc(C(F)F)c(CSC)c1Cl [Example 2-320] | 100 | 80% | 100% | 100 | 100 | 100 | 100 |  |  |  |  |  |  |  |  |  |  |  |  |
| CCCn1nnnc1NC(=O)c1ccc(C(F)(F)F)c(CS(C)(=O)=O)c1SC [Example 3-163] | 90 | 80% | 100% | 90 | 100 | 100 | 100 |  |  |  |  |  |  |  |  |  |  |  |  |
| Cn1nnnc1NC(=O)c1ccc(C(F)(F)F)c(CS(=O)(=O)C2CC2)c1Cl [Example 1-304] |  | 100% | 100% |  |  |  |  |  |  | 100% | 100% | 100% | 100% | 100% |  |  |  |  |  |
| CCSCc1c(C(F)(F)F)ccc(C(=O)Nc2nnnn2CC)c1Cl [Example 2-299] |  | 90% | 100% |  |  |  |  |  |  | 90% | 90% | 100% | 100% | 100% |  |  |  |  |  |
| CSCc1c(C(F)F)ccc(C(=O)Nc2nnnn2C)c1Cl [Example 1-320] | 100 | 80% | 100% | 100 | 100 | 100 | 100 |  |  |  |  |  |  |  | 90 | 100 | 100 | 100 |  |
| C=CCSCc1c(C(F)(F)F)ccc(C(=O)Nc2nnnn2CCC)c1Cl [Example 3-308] | 100 | 100% | 100% | 100 | 80 | 80 | 100 |  |  |  |  |  |  |  |  |  |  |  |  |
| CCn1nnnc1NC(=O)c1ccc(C(F)(F)F)c(CSCCOC)c1Cl [Example 2-305] |  | 100% | 100% |  |  |  |  |  |  | 100% | 100% | 100% | 100% | 100% |  |  |  |  |  |
| Cn1nnnc1NC(=O)c1ccc(I)c(CS(C)(=O)=O)c1Cl [Example 1-364] | 90 | 90% | 100% | 100 | 100 | 100 | 100 |  |  |  |  |  |  |  |  |  |  |  |  |
| CC[S+]([O-])Cc1c(C(F)(F)F)ccc(C(=O)Nc2nnnn2C)c1Cl (racemic) [Example 1-300] |  | 100% | 100% |  |  |  |  |  |  | 90% | 100% | 100% | 100% | 90% |  |  |  |  |  |
| CCn1nnnc1NC(=O)c1ccc(C(F)(F)F)c(C[S+]([O-])CC)c1Br (centres unmarked) [Example 2-384] |  | 90% | 100% |  |  |  |  |  |  | 90% | 90% | 100% | 100% | 100% |  |  |  |  |  |
| CCn1nnnc1NC(=O)c1ccc(C(F)F)c(C[S+]([O-])CC)c1Cl (centres unmarked) [Example 2-324] |  | 100% | 100% |  |  |  |  |  |  | 90% | 100% | 100% | 100% | 100% |  |  |  |  |  |
| CSc1c(C(=O)Nc2nnnn2C)ccc(C(F)F)c1C[S+](C)[O-] (centres unmarked) [Example 1-171] | 80 | 90% | 100% | 100 | 90 | 100 | 100 |  |  |  |  |  |  |  |  |  |  |  |  |
| CCn1nnnc1NC(=O)c1ccc(C(F)(F)F)c(CS(C)(=O)=O)c1Cl [Example 2-298] | 80 | 80% | 100% | 90 | 100 | 100 | 80 |  |  |  |  |  |  |  |  |  |  |  |  |
| CCn1nnnc1NC(=O)c1ccc(C(F)(F)F)c(C[S+]([O-])CC)c1Cl (centres unmarked) [Example 2-300] |  | 100% | 100% |  |  |  |  |  |  | 90% | 100% | 100% | 100% | 90% |  |  |  |  |  |
| Cn1nnnc1NC(=O)c1ccc(C(F)F)c(CS(C)(=O)=O)c1Cl [Example 1-322] |  | 100% | 100% |  |  |  |  |  |  | 90% | 100% | 100% | 100% | 100% |  |  |  |  |  |
| CCn1nnnc1NC(=O)c1ccc(C(F)(F)F)c(C[S+]([O-])CC2CC2)c1Cl (centres unmarked) [Example 2-315] |  | 90% | 100% | 100 | 100 | 100 | 100 |  |  |  |  |  |  |  |  |  |  |  |  |
| CCCn1nnnc1NC(=O)c1ccc(C(F)F)c(C[S+](C)[O-])c1SC (centres unmarked) [Example 3-171] |  | 90% | 100% | 90 | 100 | 100 | 100 |  |  |  |  |  |  |  |  |  |  |  |  |
| CCn1nnnc1NC(=O)c1ccc(C(F)F)c(C[S+](C)[O-])c1SC (centres unmarked) [Example 2-171] |  | 90% | 100% | 90 | 100 | 100 | 100 |  |  |  |  |  |  |  |  |  |  |  |  |
| CCCn1nnnc1NC(=O)c1ccc(C(F)F)c(CSC)c1SC [Example 3-170] |  | 80% | 100% | 90 | 100 | 90 | 100 |  |  |  |  |  |  |  |  |  |  |  |  |
| CCSCc1c(C(F)(F)F)ccc(C(=O)Nc2nnnn2C)c1SCC [Example 1-182] |  | 80% | 100% | 90 | 100 | 100 | 90 |  |  |  |  |  |  |  |  | 80 | 100 | 70 | 90 |

From patent US12492173B2, “Herbicidal substituted N-tetrazolyl aryl carboxamides” (Bayer Aktiengesellschaft, priority 2019, dated 2025)
